Laboratory results as given in patent US20180289739A1, “Combination Therapy for Treating Proliferative Diseases” (BIONOMICS LIMITED, priority 2009, published 2018).

How the values were obtained:
[1] = system: MDA-MB-231 solid orthotopic tumours; experiment: Tumour Growth Inhibition, MDA-MB-231 orthotopic tumours; format: in vivo, Balb/c nu/nu mice; conditions: 40 mg/kg i.v., two cycles; monitored up to 72 days; vs vehicle, p<0.001 from day 4 to Day 70
Description: Tumour Growth Inhibition:
Balb/c nu/nu mice bearing MDA-MB-231 solid orthotopic tumours were treated with compound Example 2 at 40 mg/kg. Animals were i.v. dosed with a total of two cycles of Example 2 treatment. Each cycle was dosing on […] followed by a three week no-dosing period. Tumour growth represented as a ratio to initial tumour volume is shown over a total of 72-days.
Tumour growth as well as animal health were monitored for up to 72 days post-day 1 of treatment. […] Significant differences in tumour growth between Example 2 treated (n=64) and vehicle treated (n=20) animals were observed as early as day 4 (p<0.001; unpaired t-test; Prism® analysis) through to Day 70.

tubulin = experiment: Tubulin polymerisation inhibition; format: biochemical
[2] = system: Human umbilical vein endothelial cells (HUVECs), tumour type activated endothelial cells (Tum); experiment: Proliferation Assay - Activated Endothelium (MTT); format: cell-based; conditions: for IC50: Homo sapiens, HUVEC, tumour type activated endothelial cells, 48 hrs; for Potency against activated (tumour) versus quiescent (normal) endothelial cells: activated compared with quiescent endothelial cells
Description: Proliferation Assay—Activated Endothelium:
(§1) Human umbilical vein endothelial cells (CC-2519, Clonetics) were plated at 2500 cells/well in EGM2 (CC-3162, Clonetics) in a 96 well plate in triplicate. Cells were cultured overnight at 37° C. 5% CO2. Medium was subsequently replaced with fresh medium including the compound or negative control. Cells were cultured for a period of 48 hrs. An MTT assay was performed to measure changes in cell numbers. Briefly, 20 μl of MTT reagent was added to cells containing 100 μl of EGM2 and incubated at 37° C. for 2 hours. Absorbance was measured at 492 nm.

[3] = system: Human umbilical vein endothelial cells (HUVECs), normal quiescent type endothelial cells (Norm); experiment: Proliferation Assay - Quiescent Endothelium (MTT); format: cell-based; conditions: HUVEC, 48 hrs
Description: Proliferation Assay—Quiescent Endothelium:
as §1, with “15000” for “2500”, “EBM2 (CC-3156, Clonetics)+0.5% FBS (CC-4101A, Clonetics)+GA-1000 (CC-4381A,” for “EGM2 (CC-3162,”, “EBM2+0.5% FBS” for “EGM2”

MCF-7 = experiment: Growth inhibition of cancer cell line, Sulforhodamine B (SRB) or Systmex cell counting (CC) assay; format: cell-based; conditions: Homo sapiens, MCF7, concentration required to inhibit net cell growth by 50%

IC50 (MCF-7) [nM]	SMILES	Tumour growth (ratio to initial tumour volume) [1]	Tubulin polymerisation inhibition (tubulin)	IC50 [2] [nM]	Potency against activated (tumour) versus quiescent (normal) endothelial cells [2]	IC50 [3] [nM]
–	COc1cc(C(=O)c2c(C)oc3c(OP(=O)([O-])[O-])c(OC)ccc23)cc(OC)c1OC.[Na+].[Na+] [Example 2, Disodium 6-methoxy-2-methyl-3-(3,4,5-trimethoxybenzoyl)benzofuran-7-yl Phosphate]	clearly show tumour growth inhibition	–	–	–	–
2	COc1cc(C(=O)c2c(C)oc3c(O)c(OC)ccc23)cc(OC)c1OC [Example 1, 2-Methyl-7-hydroxy-3-(3,4,5-trimethoxybenzoyl)-6-methoxybenzofuran]	–	potent tubulin polymerisation inhibitor	0.1 to 1	high potency towards tumour endothelial cells (activated) over normal endothelial cells (quiescent)	10 to 100
–	COc1ccc(/C=C\c2cc(OC)c(OC)c(OC)c2)cc1O [Combretastatin A4]	–	–	–	equally potent against quiescent and activated endothelial cells	–
500	COc1ccc2c(C(=O)c3cc(OC)c(OC)c(OC)c3)c(Br)oc2c1 [Comparator D]	–	–	100 to 1000	–	100 to 1000

SMILES	IC50 (MCF-7) [nM]	Tumour growth (ratio to initial tumour volume) [1]	Tubulin polymerisation inhibition (tubulin)	IC50 [2] [nM]	Potency against activated (tumour) versus quiescent (normal) endothelial cells [2]	IC50 [3] [nM]
COc1ccc2c(C(=O)c3cc(OC)c(OC)c(OC)c3)coc2c1 [Comparator C]	55	–	–	10 to 100	–	10 to 100
